# Results published in patent US20240197708A1, “TREATMENT OF PRODROMAL HUNTINGTON DISEASE” (Prilenia Neurotherapeutics Ltd., priority 2021, published 2024).
# How the values were obtained:
# [1] = test system: prodromal HD subjects; details: 45 mg bid
# Experimental: The efficacy of pridopidine for treating prodromal HD is evaluated in a randomized, double-blind, placebo-controlled trial.
# [2] = test system: early-stage HD patients; details: disclosed in U.S. Pat. Nos. 10,322,119 and 11,207,310; cited from earlier work
# [3] = CSF and/or plasma, 52 weeks, vs placebo
smiles,measurement,setting,value
"CCCN1CCC(c2cccc(S(C)(=O)=O)c2)CC1 [Pridopidine, 4-[3-(methylsulfonyl)phenyl]-1-propyl-piperidine]",DMN and functional connectivity,"[1]; 52 weeks, vs placebo",maintenance of or less worsening
same,PBA-s apathy score,"[1]; 52 weeks, vs placebo",improvement or less worsening compared to placebo
same,PBA-s total score,"[1]; 52 weeks, vs placebo",improvement or less worsening compared to placebo
same,cognitive assessments by the HD-CAB battery of tests,"[1]; 52 weeks, vs placebo",improves or maintains or show less worsening compared to placebo
same,cognitive assessments by the SDMT,"[1]; 52 weeks, vs placebo","improves, maintains or shows less decline"
same,cortical thickness,"[1]; 52 weeks, vs placebo",no decrease or less decrease compared to placebo
same,motor measure Q-Motor finger tapping,"[1]; 52 weeks, vs placebo","maintenance, improvement or less decline compared to placebo"
same,motor measure TMS,"[1]; 52 weeks, vs placebo","maintenance, improvement or less decline compared to placebo"
same,total brain volume,"[1]; 52 weeks, vs placebo",no decrease or less decrease compared to placebo
same,ventricular volume,"[1]; 52 weeks, vs placebo",decrease or maintenance of ventricular volume or a smaller increase in ventricular volume compared to placebo
same,volume of the striatal structures caudate and putamen,"[1]; 52 weeks, vs placebo",no decrease or less decrease compared to placebo
same,level of fluid biomarker NfL,[1]; [3],reduction or maintenance
same,level of fluid biomarker phospho-tau,[1]; [3],reduction or maintenance
same,level of fluid biomarker proenkephalin,[1]; [3],reduction or maintenance
same,progression to manifest HD,"[1]; over the course of the trial (52 weeks), vs placebo group",less participants in the pridopidine group progressed to manifest HD compared to the placebo group
same,functional capacity,[2],"maintains, improves or lessens the decline of functional capacity"
